Measurements taken from patent publication US7803779B2, “Drugs for the treatment and/or prophylaxis of gastroparesis symptom” (Chugai Seiyaku Kabushiki Kaisha, priority 2005, dated 2010).
Entries after “also recorded” stand apart in the source; their conditions may differ.

Columns and labels:
[1] = test system: patients with gastroparesis; settings: 383 patients, both delayed and non-delayed gastric emptying; cited from earlier work
[2] = test system: gastric emptying; settings: clinical; cited from earlier work
[3] = test system: diabetic patients presenting with gastroparesis symptom despite a normal level of gastric emptying; assay: Effect of GM-611 on gastroparesis symptom in diabetic patients with a normal level of gastric emptying (Example 1, FIG. 1); assay type: in vivo, human
Text: FIG. 1, which is titled “Effect of GM-611 on gastroparesis symptom in diabetic patients with a normal level of gastric emptying”, is a graph showing results of evaluating the percentage of responders who were in the patients the gastroparesis symptom regardless a normal level of gastric emptying and who perceived an adequate relief of gastroparesis symptom by the administration of the therapeutic and/or preventive agent against gastroparesis symptom according to the present invention; M1R (month 1 responder) refers to patients who had adequate relief in at least 50% of weekly evaluations for the first one month of medication and CR (complete responder) refers to patients who were evaluated as monthly responder for three consecutive months.
(§1) In the following examples, GM-611 (8,9-didehydro-N-demethyl-9-deoxo-6,11-dideoxy-6,9-epoxy-12-O-methyl-N-(1-methylethyl)-11-oxoerythromycin,(2E)-2-butenedioate) was used as a compound of the formula (1). This compound was synthesized in the laboratories of Chugai Pharmaceutical Co., Ltd. as described in WO02/18403 and WO02/30943. To evaluate the efficacy of GM-611 in improving subjective gastroparesis symptom, diabetic patients on insulin therapy were selected. Since the analyses in the following examples were after the key-open of clinical trial, P<0.01 in a two-tail test was considered to show a significant effect and P<0.1 a tendency.
In order to assess the efficacy of GM-611 in improving subjective gastroparesis symptom, diabetic patients who were presenting with gastroparesis symptom despite a normal level of gastric emptying were selected. […] All assessment in the subjective gastroparesis symptom was evaluated by an electric diary by phone. Starting one week after the initiation of medication, the patients were interviewed every week and asked whether in the past 7 days, you have had adequate relief of your gastroparesis symptoms, and the yes/no answers were recorded. […] Patients who were evaluated as monthly responder for three consecutive months. were assigned as “complete responders” (CR).

[4] = test system: patients of type 1 diabetes with gastroparesis symptom and a normal level of gastric emptying; assay: Effect of GM-611 on gastroparesis symptom in patients of type 1 diabetes with a normal level of gastric emptying (Example 2, FIG. 2); assay type: in vivo, human; settings: type 1 diabetes patients only
Text: FIG. 2, which is titled “Effect of GM-611 on gastroparesis symptom in patients of type 1 diabetes with a normal level of gastric emptying”, is a graph showing results of evaluating the percentage of responders who were in the patients of type 1 diabetes with the gastroparesis symptom regardless a normal level of gastric emptying and who perceived an adequate relief of gastroparesis symptom by the administration of the therapeutic and/or preventive agent against gastroparesis symptom according to the present invention; M1R (month 1 responder) refers to patients who had adequate relief in at least 50% of weekly evaluations for the first one month of medication and CR (complete responder) refers to patients who were evaluated as monthly responder for three consecutive months.
as §1
(§2) In order to assess the efficacy of GM-611 in improving subjective gastroparesis symptom, diabetic patients who were presenting with gastroparesis symptom despite a normal level of gastric emptying were selected. […] All assessment in the subjective gastroparesis symptom was evaluated by an electric diary by phone. Starting one week after the initiation of medication, the patients were interviewed every week and asked whether in the past 7 days, you have had adequate relief of your gastroparesis symptoms, and the yes/no answers were recorded. […] Patients who were evaluated as monthly responder for three consecutive months. were assigned as “complete responders” (CR). […]

[5] = test system: diabetic patients with good glycemic control (hemoglobin A1C no more than 8%) with a normal level of gastric emptying; assay: Effect of GM-611 on gastroparesis symptom in diabetic patients of good glycemic control with a normal level of gastric emptying (Example 3, FIG. 3); assay type: in vivo, human
Text: FIG. 3, which is titled “Effect of GM-611 on gastroparesis symptom in diabetic patients of good glycemic control with a normal level of gastric emptying”, is a graph showing results of evaluating the percentage of responders who were in the diabetic patients with good glycemic control with the gastroparesis symptom regardless a normal level of gastric emptying and who perceived an adequate relief of gastroparesis symptom by the administration of the therapeutic and/or preventive agent against gastroparesis symptom according to the present invention; M1R (month 1 responder) refers to patients who had adequate relief in at least 50% of weekly evaluations for the first one month of medication and CR (complete responder) refers to patients who were evaluated as monthly responder for three consecutive months.
as §1, with “Since the analyses in the following examples were after the key-open of clinical trial, P<0.01 in a two-tail test was considered to show a significant effect and P<0.1 a tendency.” left out
as §2

[6] = test system: diabetic patients with a longer-than-ten-year history of diabetes with a normal level of gastric emptying; assay: Effect of GM-611 on gastroparesis symptom in diabetic patients of diabetic history longer than 10 years with a normal level of gastric emptying (Example 4, FIG. 4); assay type: in vivo, human
Text: FIG. 4, which is titled “Effect of GM-611 on gastroparesis symptom in diabetic patients of diabetic history longer than 10 years with a normal level of gastric emptying”, is a graph showing results of evaluating the percentage of responders who were in the diabetic patients of diabetic history longer than 10 years with the gastroparesis symptom regardless a normal level of gastric emptying and who perceived an adequate relief of gastroparesis symptom by the administration of the therapeutic and/or preventive agent against gastroparesis symptom according to the present invention; M1R (month 1 responder) refers to patients who had adequate relief in at least 50% of weekly evaluations for the first one month of medication and CR (complete responder) refers to patients who were evaluated as monthly responder for three consecutive months.
as §1, with “Since the analyses in the following examples were after the key-open of clinical trial, P<0.01 in a two-tail test was considered to show a significant effect and P<0.1 a tendency.” left out
as §2

SMILES | efficacy on gastroparesis symptom [1] | acceleration of gastric emptying [2] | dose dependency of efficacy [3] | P, CR rate in whole GM-611 treated group vs. placebo group by chi-square test ([3]; complete responders, 3 months) | percentage of responders who had adequate relief in gastroparesis symptom vs placebo group ([3]; twice daily at meals for 3 months, both GM-611 groups) | P, CR rate in whole GM-611 treated group vs. placebo group by chi-square test [4] | dose dependency of efficacy [4] | efficacy in improving the symptom ([4]; normal gastric emptying) | P, CR rate in whole GM-611 treated group vs. placebo group by chi-square test [5] | dose dependency of efficacy [5] | efficacy in improving the symptom [5] | P, CR rate in whole GM-611 treated group vs. placebo group by chi-square test [6] | dose dependency of efficacy [6] | efficacy in improving the symptom [6]
CC[C@H]1OC(=O)[C@H](C)[C@@H](O[C@H]2C[C@@](C)(OC)C[C@H](C)O2)[C@H](C)[C@@H](O[C@@H]2O[C@H](C)C[C@H](N(C)CC)[C@H]2O)[C@@]2(C)CC(C)=C(O2)[C@H](C)[C@@H](O)[C@H]1C [ABT-229] | no efficacy | capable of accelerating gastric emptying | – | – | – | – | – | – | – | – | – | – | – | –
CC[C@H]1OC(=O)[C@H](C)[C@@H](O[C@H]2C[C@@](C)(OC)[C@@H](O)[C@H](C)O2)[C@H](C)[C@@H](O[C@@H]2O[C@H](C)C[C@H](N(C)C(C)C)[C@H]2O)[C@@]2(C)CC(C)=C(O2)[C@H](C)C(=O)[C@]1(C)OC.O=C(O)/C=C/C(=O)O [GM-611, 8,9-didehydro-N-demethyl-9-deoxo-6,11-dideoxy-6,9-epoxy-12-O-methyl-N-(1-methylethyl)-11-oxoerythromycin,(2E)-2-butenedioate] | – | – | no apparent dose dependency | 0.025 | greater than those in the placebo group; also recorded: only a tendency to improve the symptom | 0.001 | dose-dependent | significant | 0.010 | dose-dependent manner | significant efficacy in improving the symptom | 0.001 | dose-dependent manner | significant efficacy in improving the symptom
